Among the data in patent US12528816B2, “Substituted imidazo [1,2-b] pyridazines and [1, 2, 4] triazolo [ 4,3-b] pyridazines as camkii inhibitors” (Cardurion Pharmaceuticals, INC., priority 2020, dated 2026) are IC50 values, retold here.

The target in this experiment is T1, human CaMKIIδ (Homo sapiens, UniProt Q13557).
T1 construct: Full-length, glutathione-S-transferase(GST)-tagged, human CaMKIIδ was purchased from Carna Biosciences; purchased Carna Biosciences (CaMKIIδ); Wako Pure Chemical Industries (calmodulin) 02-111
Briefly: Evaluation of in vitro CaMKII inhibitory activity (binding assay, TR-FRET). The following applies: in vitro CaMKII inhibitory activity (binding assay), human CaMKIIδ; read-out: Act. The method in brief: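 Inhibitors, in eight concentrations of 4-fold dilution, were incubated 1 h at room temperature with a protein–fluorescent probe premix preformed 30 min on ice, containing calmodulin and terbium anti-GST antibody. Displacement read by TR-FRET in duplicate; IC50 by logistic fitting.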
In the case of `C[C@@H](Cn1cnnn1)Oc1cccc(-c2ccn3ncc(-c4ncccc4C#N)c3n2)c1` [compound 304], the IC50 is < 0.01 µM.
In the case of `C[C@@H](Cn1cnnn1)Oc1cccc(-c2ccc3ncc(-c4ccccc4CN=S(C)(C)=O)n3n2)c1` [compound 306], the IC50 was 0.01 to 0.1 µM.
Consider `C[C@@H](Cn1cnnn1)Oc1cccc(-c2ccc3ncc(-c4ccccc4CN(C)C)n3n2)c1` [compound 307], for which the IC50 is 0.01 to 0.1 µM.
Under `C[C@@H](Cn1cnnn1)Oc1cccc(-c2ccc3ncc(-c4ccccc4CO)n3n2)c1` [compound 308] stands < 0.01 µM; under `C[C@@H](Cn1cnnn1)Oc1cccc(-c2ccn3ncc(-c4cnccc4C(N)=O)c3n2)c1` [compound 309], 0.01 to 0.1 µM; under `C[C@@H](Cn1cnnn1)Oc1cccc(-c2ccn3ncc(-c4cnccc4C#N)c3n2)c1` [compound 310], < 0.01 µM.
`COc1nc(-c2cnc3ccc(-c4cccc(O[C@@H](C)Cn5cnnn5)c4)nn23)ccc1C#N` [compound 312]: the IC50 is < 0.01 µM.
In the case of `C[C@@H](Cn1cnnn1)Oc1cc(-c2ccc3ncc(-c4cc(F)c[nH]c4=O)n3n2)ccc1F` [compound 314], the IC50 was < 0.01 µM.
Under `COc1ncc(F)cc1-c1cnc2ccc(-c3cccc(O[C@@H](C)Cn4cnnn4)c3)nn12` [compound 315] stands < 0.01 µM; under `C[C@@H](Cn1cnnn1)Oc1cncc(-c2ccc3ncn(-c4cc(F)ccc4C#N)c3n2)c1` [compound 316], < 0.01 µM.
For the compound `C[C@@H](Cn1cnnn1)Oc1cc(-c2ccc3ncc(-c4cc(F)cn(C)c4=O)n3n2)ccc1F` [compound 317], the IC50 is < 0.01 µM.
`C[C@@H](Cn1cnnn1)Oc1cccc(-c2ccc3ncc(-c4cc(=O)[nH]cc4C#N)n3n2)c1` [compound 318]: the IC50 is < 0.01 µM.
Then `C[C@@H](Cn1cnnn1)Oc1cc(-c2ccn3ncc(-c4cc(F)ccc4C#N)c3n2)ccn1` [compound 319], with < 0.01 µM.
Regarding `COc1cccc(-c2cnc3ccc(-c4cccc(O[C@@H](C)Cn5cnnn5)c4)nn23)c1C#N` [compound 322], the IC50 is < 0.01 µM.
As to `COc1ncc(Cl)cc1-c1cnc2ccc(-c3cccc(O[C@@H](C)Cn4cnnn4)c3)nn12` [compound 323], the IC50 is < 0.01 µM.
Under `C[C@@H](Cn1cnnn1)Oc1cccc(-c2ccc3ncc(-c4cc(F)c[nH]c4=O)n3n2)c1` [compound 324] stands < 0.01 µM.
`COc1ncc(C)cc1-c1cnc2ccc(-c3cccc(O[C@@H](C)Cn4cnnn4)c3)nn12` [compound 327]: the IC50 is < 0.01 µM.
Then `C[C@@H](Cn1cnnn1)Oc1cccc(-c2ccc3ncc(-c4cc(Cl)c[nH]c4=O)n3n2)c1` [compound 328], with < 0.01 µM; and `Cc1c[nH]c(=O)c(-c2cnc3ccc(-c4cccc(O[C@@H](C)Cn5cnnn5)c4)nn23)c1` [compound 329], with < 0.01 µM; and `C[C@@H](Cn1cnnn1)Oc1ccnc(-c2ccc3ncn(-c4cc(F)ccc4C#N)c3n2)c1` [compound 330], with < 0.01 µM.
Consider `C[C@@H](Cn1cnnn1)Oc1cccc(-c2ccc3ncc(-c4cc(F)cn(C)c4=O)n3n2)c1` [compound 331], for which the IC50 was < 0.01 µM.
Under `COc1ncccc1-c1cnc2ccc(-c3cccc(O[C@@H](C)Cn4cnnn4)c3)nn12` [compound 332] stands < 0.01 µM; under `Cc1cc(-c2cnc3ccc(-c4cccc(O[C@@H](C)Cn5cnnn5)c4)nn23)c(C#N)cn1` [compound 333], < 0.01 µM.
For the compound `C[C@@H](Cn1cnnn1)Oc1cccc(-c2ccc3ncc(-c4cc(Cl)cn(C)c4=O)n3n2)c1` [compound 334], the IC50 was < 0.01 µM.
Consider `Cc1cc(-c2cnc3ccc(-c4cccc(O[C@@H](C)Cn5cnnn5)c4)nn23)c(=O)n(C)c1` [compound 335], for which the IC50 was < 0.01 µM.
As for `C[C@@H](Cn1cnnn1)Oc1cccc(-c2ccc3ncc(-c4cc(F)cnc4OCC(F)F)n3n2)c1` [compound 336], the IC50 was < 0.01 µM.
Under `C[C@@H](Cn1cnnn1)Oc1cccc(-c2ccc3ncc(-c4cc(F)cn(CC(F)F)c4=O)n3n2)c1` [compound 337] stands < 0.01 µM; under `C[C@@H](Cn1cnnn1)Oc1cccc(-c2ccc3ncc(-c4cc(F)cnc4OCC(F)(F)F)n3n2)c1` [compound 338], < 0.01 µM.
For the compound `C[C@@H](Cn1cnnn1)Oc1cccc(-c2ccc3ncc(-c4cc(F)cn(CC(F)(F)F)c4=O)n3n2)c1` [compound 339], the IC50 is < 0.01 µM.
Consider `C[C@@H](Cn1cnnn1)Oc1cccc(-c2ccc3ncc(-c4cccn(CC(F)F)c4=O)n3n2)c1` [compound 340], for which the IC50 was < 0.01 µM.
Take `C[C@@H](Cn1cnnn1)Oc1cccc(-c2ccc3ncc(-c4cccn(CCOCC(F)(F)F)c4=O)n3n2)c1` [compound 341]: the IC50 is < 0.01 µM.
Regarding `C[C@@H](Cn1cnnn1)Oc1cc(-c2ccc3ncn(-c4cc(F)ccc4C#N)c3n2)ccn1` [compound 343], the IC50 was < 0.01 µM.
For `C[C@@H](Cn1cnnn1)Oc1cccc(-c2ccc3ncc(-c4nccc(OCC(F)(F)F)c4C#N)n3n2)c1` [compound 344], the IC50 is < 0.01 µM.
For `C[C@@H](Cn1cnnn1)Oc1ccnc(-c2ccc3ncn(-c4cc(F)ccc4C#N)c3n2)n1` [compound 346], the IC50 is 0.01 to 0.1 µM.
In the case of `C[C@@H](Cn1cnnn1)Oc1cccc(-c2ccc3ncc(-c4cc(=O)n(C)cc4C#N)n3n2)c1` [compound 348], the IC50 was < 0.01 µM.
Take `C[C@@H](Cn1cnnn1)Oc1cccc(-c2ccc3ncc(-c4nc(C(F)(F)F)ccc4C#N)n3n2)c1` [compound 349]: the IC50 was 0.01 to 0.1 µM.
Consider `C[C@@H](Cn1cnnn1)Oc1cccc(-c2ccc3ncc(-c4nc(N(C)C)ccc4C#N)n3n2)c1` [compound 350], for which the IC50 lay in the range of 0.01 to 0.1 µM.
As to `COc1cc(-c2cnc3ccc(-c4cccc(O[C@@H](C)Cn5cnnn5)c4)nn23)c(F)cn1` [compound 351], the IC50 is < 0.01 µM.
Consider `C[C@@H](Cn1cnnn1)Oc1cccc(-c2ccc3ncc(-c4nccc(OCC5COC5)c4C#N)n3n2)c1` [compound 352], for which the IC50 is < 0.01 µM.
Turning to `COc1ccnc(-n2cnc3ccc(-c4cccc(O[C@@H](C)Cn5cnnn5)c4)nc32)c1C#N` [compound 353], the IC50 was < 0.01 µM.
As to `COc1ccnc(-n2cnc3ccc(-c4ccc(F)c(O[C@@H](C)Cn5cnnn5)c4)nc32)c1C#N` [compound 355], the IC50 is < 0.01 µM.
Turning to `C[C@@H](Cn1cnnn1)Oc1cccc(-c2ccc3ncc(-c4nccc(N(C)C)c4C#N)n3n2)c1` [compound 356], the IC50 was < 0.01 µM.
Turning to `C[C@@H](Cn1cnnn1)Oc1cc(F)cc(-c2ccc3ncc(-c4cccn(C)c4=O)n3n2)c1` [compound 357], the IC50 was < 0.01 µM.
Turning to `C[C@@H](Cn1cnnn1)Oc1cccc(-c2ccc3ncc(-c4cc(F)cnc4OCC#N)n3n2)c1` [compound 359], the IC50 was < 0.01 µM.
Consider `C[C@@H](Cn1cnnn1)Oc1cccc(-c2ccc3ncc(-c4cc(F)cn(CC#N)c4=O)n3n2)c1` [compound 360], for which the IC50 is < 0.01 µM.
In the case of `CNc1ccc(C#N)c(-c2cnc3ccc(-c4cccc(O[C@@H](C)Cn5cnnn5)c4)nn23)n1` [compound 361], the IC50 was < 0.01 µM.
Take `COc1ncc(C#N)c(-c2cnc3ccc(-c4cccc(O[C@@H](C)Cn5cnnn5)c4)nn23)n1` [compound 362]: the IC50 was < 0.01 µM.
On to `C[C@@H](Cn1cnnn1)Oc1cccc(-c2ccc3ncc(-c4nccc(N5CCCC5)c4C#N)n3n2)c1` [compound 363], for which the IC50 lay within 0.01 to 0.1 µM.
In the case of `C[C@@H](Cn1cnnn1)Oc1cccc(-c2ccc3ncc(-c4[nH]c(=O)ccc4C#N)n3n2)c1` [compound 364], the IC50 is < 0.01 µM.
Regarding `CCOc1ncnc(-c2cnc3ccc(-c4cccc(O[C@@H](C)Cn5cnnn5)c4)nn23)c1C#N` [compound 365], the IC50 is < 0.01 µM.
As to `CCOc1ccnc(-c2cnc3ccc(-c4cccc(O[C@@H](C)Cn5cnnn5)c4)nn23)c1C#N` [compound 366], the IC50 is < 0.01 µM.
For the compound `C[C@@H](Cn1cnnn1)Oc1cccc(-c2ccc3ncc(-c4nccc(NCC(F)F)c4C#N)n3n2)c1` [compound 367], the IC50 lay within 0.01 to 0.1 µM.
On to `C[C@@H](Cn1cnnn1)Oc1cc(-c2ccc3ncn(-c4ncccc4C#N)c3n2)ccc1Cl` [compound 368], for which the IC50 was in the range of 0.01 to 0.1 µM.
Under `C[C@@H](Cn1cnnn1)Oc1cccc(-c2ccc3ncc(-c4nccc(NCC(F)(F)F)c4C#N)n3n2)c1` [compound 369] stands 0.01 to 0.1 µM; under `C[C@@H](Cn1cnnn1)Oc1cccc(-c2ccc3ncc(-c4nccc(N5CCC5)c4C#N)n3n2)c1` [compound 370], 0.01 to 0.1 µM; under `CCc1ccc(C#N)c(-c2cnc3ccc(-c4cccc(O[C@@H](C)Cn5cnnn5)c4)nn23)n1` [compound 371], < 0.01 µM.
As to `C[C@@H](Cn1cnnn1)Oc1cccc(-c2ccc3ncc(-c4ncnc(N(C)C)c4C#N)n3n2)c1` [compound 372], the IC50 was 0.01 to 0.1 µM.
As to `C[C@@H](Cn1cnnn1)Oc1cccc(-c2ccc3nnc(-c4ccccc4C#N)n3n2)c1` [compound 373], the IC50 was > 0.1 µM.
Consider `CCOc1ccnc(-n2cnc3ccc(-c4cccc(O[C@@H](C)Cn5cnnn5)c4)nc32)c1C#N` [compound 374], for which the IC50 is < 0.01 µM.
For `CCOc1ccnc(-n2cnc3ccc(-c4ccnc(O[C@@H](C)Cn5cnnn5)c4)nc32)c1C#N` [compound 375], the IC50 lay in the range of 0.01 to 0.1 µM.
Regarding `C[C@@H](Cn1cnnn1)Oc1cccc(-c2ccc3ncc(-c4nccc(N(C)CC(F)F)c4C#N)n3n2)c1` [compound 376], the IC50 fell in the range of 0.01 to 0.1 µM.
Under `COc1ccnc(-c2c(F)nn3ccc(-c4cccc(O[C@@H](C)Cn5cnnn5)c4)nc23)c1C#N` [compound 377] stands 0.01 to 0.1 µM; under `Cc1ccnc(-c2cnc3ccc(-c4cccc(O[C@@H](C)Cn5cnnn5)c4)nn23)c1C#N` [compound 378], < 0.01 µM; under `CCc1ccnc(-c2cnc3ccc(-c4cccc(O[C@@H](C)Cn5cnnn5)c4)nn23)c1C#N` [compound 380], < 0.01 µM.
